In ChEMBL document CHEMBL4507256 (2021):

Assays:
[1] = molecular target: Atypical kinase COQ8A, mitochondrial (Homo sapiens) (UniProt Q8NI60); settings: Compound concentration 1000.0 nM
[2] = molecular target: RAC-beta serine/threonine-protein kinase (Homo sapiens) (UniProt P31751); settings: Compound concentration 1000.0 nM
[3] = tested on: ALK tyrosine kinase receptor (Homo sapiens), Q9UM73 [L1196M]; settings: Compound concentration 1000.0 nM
[4] = molecular target: Mitogen-activated protein kinase kinase kinase 5 (Homo sapiens) (UniProt Q99683); settings: Compound concentration 1000.0 nM
[5] = molecular target: Bone morphogenetic protein receptor type-1B (Homo sapiens) (UniProt O00238); settings: Compound concentration 1000.0 nM
[6] = molecular target: Calcium/calmodulin-dependent protein kinase type 1G (Homo sapiens) (UniProt Q96NX5); settings: Compound concentration 1000.0 nM
[7] = molecular target: Calcium/calmodulin-dependent protein kinase type II subunit alpha (Homo sapiens) (UniProt Q9UQM7); settings: Compound concentration 1000.0 nM
[8] = molecular target: Calcium/calmodulin-dependent protein kinase type II subunit delta (Homo sapiens) (UniProt Q13557); settings: Compound concentration 1000.0 nM
[9] = molecular target: Calcium/calmodulin-dependent protein kinase type IV (Homo sapiens) (UniProt Q16566); settings: Compound concentration 1000.0 nM
[10] = tested on: Fibroblast growth factor receptor 3 (Homo sapiens), P22607 [G697C]; settings: Compound concentration 1000.0 nM
[11] = tested on: Receptor-type tyrosine-protein kinase FLT3 (Homo sapiens), P36888 [D835H]; settings: Compound concentration 1000.0 nM
[12] = tested on: Receptor-type tyrosine-protein kinase FLT3 (Homo sapiens), P36888 [UNDEFINED MUTATION]; settings: Compound concentration 1000.0 nM
[13] = tested on: Receptor-type tyrosine-protein kinase FLT3 (Homo sapiens), P36888 [K663Q]; settings: Compound concentration 1000.0 nM
[14] = molecular target: Rhodopsin kinase GRK1 (Homo sapiens) (UniProt Q15835); settings: Compound concentration 1000.0 nM
[15] = molecular target: Glycogen synthase kinase-3 alpha (Homo sapiens) (UniProt P49840); settings: Compound concentration 1000.0 nM
[16] = molecular target: Hormonally up-regulated neu tumor-associated kinase (Homo sapiens) (UniProt P57058); settings: Compound concentration 1000.0 nM
[17] = molecular target: Insulin-like growth factor 1 receptor (Homo sapiens) (UniProt P08069); settings: Compound concentration 1000.0 nM
[18] = molecular target: Interleukin-1 receptor-associated kinase 1 (Homo sapiens) (UniProt P51617); settings: Compound concentration 1000.0 nM
[19] = molecular target: Tyrosine-protein kinase JAK1 (Homo sapiens) (UniProt P23458); settings: Compound concentration 1000.0 nM
[20] = molecular target: Mitogen-activated protein kinase kinase kinase 4 (Homo sapiens) (UniProt Q9Y6R4); settings: Compound concentration 1000.0 nM
[21] = molecular target: MAP/microtubule affinity-regulating kinase 3 (Homo sapiens) (UniProt P27448); settings: Compound concentration 1000.0 nM
[22] = molecular target: MAP/microtubule affinity-regulating kinase 4 (Homo sapiens) (UniProt Q96L34); settings: Compound concentration 1000.0 nM
[23] = molecular target: Dual specificity mitogen-activated protein kinase kinase 7 (Homo sapiens) (UniProt O14733); settings: Compound concentration 1000.0 nM
[24] = molecular target: MAP kinase-interacting serine/threonine-protein kinase 2 (Homo sapiens) (UniProt Q9HBH9); settings: Compound concentration 1000.0 nM
[25] = molecular target: Mitogen-activated protein kinase kinase kinase 10 (Homo sapiens) (UniProt Q02779); settings: Compound concentration 1000.0 nM
[26] = molecular target: Serine/threonine-protein kinase 38-like (Homo sapiens) (UniProt Q9Y2H1); settings: Compound concentration 1000.0 nM
[27] = molecular target: Serine/threonine-protein kinase PAK 6 (Homo sapiens) (UniProt Q9NQU5); settings: Compound concentration 1000.0 nM
[28] = molecular target: Phosphatidylinositol 4,5-bisphosphate 3-kinase catalytic subunit beta isoform (Homo sapiens) (UniProt P42338); settings: Compound concentration 1000.0 nM
[29] = molecular target: Serine/threonine-protein kinase pim-3 (Homo sapiens) (UniProt Q86V86); settings: Compound concentration 1000.0 nM
[30] = molecular target: Serine/threonine-protein kinase N1 (Homo sapiens) (UniProt Q16512); settings: Compound concentration 1000.0 nM
[31] = molecular target: Serine/threonine-protein kinase D1 (Homo sapiens) (UniProt Q15139); settings: Compound concentration 1000.0 nM
[32] = molecular target: Serine/threonine-protein kinase D2 (Homo sapiens) (UniProt Q9BZL6); settings: Compound concentration 1000.0 nM
[33] = tested on: Proto-oncogene tyrosine-protein kinase receptor Ret (Homo sapiens), P07949 [M918T]; settings: Compound concentration 1000.0 nM
[34] = molecular target: Receptor-interacting serine/threonine-protein kinase 2 (Homo sapiens) (UniProt O43353); settings: Compound concentration 1000.0 nM
[35] = molecular target: Dual serine/threonine and tyrosine protein kinase (Homo sapiens) (UniProt Q6XUX3); settings: Compound concentration 1000.0 nM
[36] = molecular target: Proto-oncogene tyrosine-protein kinase ROS (Homo sapiens) (UniProt P08922); settings: Compound concentration 1000.0 nM
[37] = molecular target: NUAK family SNF1-like kinase 2 (Homo sapiens) (UniProt Q9H093); settings: Compound concentration 1000.0 nM
[38] = molecular target: Dual specificity testis-specific protein kinase 1 (Homo sapiens) (UniProt Q15569); settings: Compound concentration 1000.0 nM
[39] = molecular target: Serine/threonine-protein kinase 32C (Homo sapiens) (UniProt Q86UX6); settings: Compound concentration 1000.0 nM
[40] = molecular target: 5-hydroxytryptamine receptor 2A (Homo sapiens) (UniProt P28223); settings: Compound concentration 10.0 uM
[41] = molecular target: D(3) dopamine receptor (Homo sapiens) (UniProt P35462); settings: Compound concentration 10.0 uM
[42] = molecular target: Mu-type opioid receptor (Homo sapiens) (UniProt P35372); settings: Compound concentration 10.0 uM
[43] = molecular target: Histamine H3 receptor (Homo sapiens) (UniProt Q9Y5N1); settings: Compound concentration 10.0 uM
[44] = molecular target: Alpha-2B adrenergic receptor (Homo sapiens) (UniProt P18089); settings: Compound concentration 10.0 uM

Chain of MAP/microtubule affinity-regulating kinase 4 (Homo sapiens) (Q96L34 whole entry): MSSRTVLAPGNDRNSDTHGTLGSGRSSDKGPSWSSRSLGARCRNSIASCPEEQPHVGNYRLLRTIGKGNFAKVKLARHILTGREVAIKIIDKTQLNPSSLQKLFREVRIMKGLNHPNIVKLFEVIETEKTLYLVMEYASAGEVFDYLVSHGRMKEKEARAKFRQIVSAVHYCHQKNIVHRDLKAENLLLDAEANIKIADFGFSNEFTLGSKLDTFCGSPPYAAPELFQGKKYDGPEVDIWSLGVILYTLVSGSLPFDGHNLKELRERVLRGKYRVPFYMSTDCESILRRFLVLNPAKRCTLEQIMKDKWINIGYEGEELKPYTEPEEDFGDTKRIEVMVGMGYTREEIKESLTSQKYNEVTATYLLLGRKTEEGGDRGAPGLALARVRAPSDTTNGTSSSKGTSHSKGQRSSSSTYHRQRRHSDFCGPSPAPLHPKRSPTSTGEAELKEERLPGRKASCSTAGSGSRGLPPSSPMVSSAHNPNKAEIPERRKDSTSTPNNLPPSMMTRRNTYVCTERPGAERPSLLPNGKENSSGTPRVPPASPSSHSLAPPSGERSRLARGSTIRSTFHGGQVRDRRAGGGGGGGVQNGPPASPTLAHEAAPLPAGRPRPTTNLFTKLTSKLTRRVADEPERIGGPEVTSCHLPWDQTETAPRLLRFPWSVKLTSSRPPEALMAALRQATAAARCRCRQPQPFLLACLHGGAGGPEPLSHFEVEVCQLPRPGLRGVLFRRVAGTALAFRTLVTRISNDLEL
Chain of Calcium/calmodulin-dependent protein kinase type 1G (Homo sapiens) (Q96NX5 whole entry): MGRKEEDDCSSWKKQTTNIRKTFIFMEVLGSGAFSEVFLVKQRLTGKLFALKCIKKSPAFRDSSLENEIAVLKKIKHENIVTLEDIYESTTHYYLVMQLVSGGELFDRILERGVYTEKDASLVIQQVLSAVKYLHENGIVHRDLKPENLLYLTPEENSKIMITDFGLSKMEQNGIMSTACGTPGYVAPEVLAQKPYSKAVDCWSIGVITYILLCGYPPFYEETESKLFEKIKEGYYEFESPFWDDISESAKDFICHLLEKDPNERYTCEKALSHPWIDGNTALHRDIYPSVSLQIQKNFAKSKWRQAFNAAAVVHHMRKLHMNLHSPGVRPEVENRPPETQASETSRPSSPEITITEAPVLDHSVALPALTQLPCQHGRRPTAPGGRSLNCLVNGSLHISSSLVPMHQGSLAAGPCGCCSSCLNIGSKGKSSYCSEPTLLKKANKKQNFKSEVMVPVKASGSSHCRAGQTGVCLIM
Chain of Insulin-like growth factor 1 receptor (Homo sapiens) (P08069 31-736 limits assumed): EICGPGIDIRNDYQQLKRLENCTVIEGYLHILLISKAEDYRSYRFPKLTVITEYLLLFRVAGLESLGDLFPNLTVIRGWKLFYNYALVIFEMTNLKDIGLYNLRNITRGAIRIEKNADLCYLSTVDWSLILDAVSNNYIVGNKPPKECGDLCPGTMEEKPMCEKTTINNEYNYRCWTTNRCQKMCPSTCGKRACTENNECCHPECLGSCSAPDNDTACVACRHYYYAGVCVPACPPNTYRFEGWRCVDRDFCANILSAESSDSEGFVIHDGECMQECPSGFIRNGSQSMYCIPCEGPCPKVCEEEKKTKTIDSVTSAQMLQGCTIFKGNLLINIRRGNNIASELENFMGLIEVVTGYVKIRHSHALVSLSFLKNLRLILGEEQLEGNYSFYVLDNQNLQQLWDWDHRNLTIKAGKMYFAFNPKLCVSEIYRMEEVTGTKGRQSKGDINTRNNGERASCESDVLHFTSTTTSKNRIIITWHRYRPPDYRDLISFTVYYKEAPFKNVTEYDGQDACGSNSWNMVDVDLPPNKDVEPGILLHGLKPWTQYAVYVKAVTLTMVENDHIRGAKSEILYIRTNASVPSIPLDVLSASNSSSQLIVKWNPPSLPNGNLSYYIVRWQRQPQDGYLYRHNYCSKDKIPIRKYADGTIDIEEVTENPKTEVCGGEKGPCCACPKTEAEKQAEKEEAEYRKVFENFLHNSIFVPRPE
Chain of Insulin-like growth factor 1 receptor (Homo sapiens) (P08069 741-1367 limits assumed): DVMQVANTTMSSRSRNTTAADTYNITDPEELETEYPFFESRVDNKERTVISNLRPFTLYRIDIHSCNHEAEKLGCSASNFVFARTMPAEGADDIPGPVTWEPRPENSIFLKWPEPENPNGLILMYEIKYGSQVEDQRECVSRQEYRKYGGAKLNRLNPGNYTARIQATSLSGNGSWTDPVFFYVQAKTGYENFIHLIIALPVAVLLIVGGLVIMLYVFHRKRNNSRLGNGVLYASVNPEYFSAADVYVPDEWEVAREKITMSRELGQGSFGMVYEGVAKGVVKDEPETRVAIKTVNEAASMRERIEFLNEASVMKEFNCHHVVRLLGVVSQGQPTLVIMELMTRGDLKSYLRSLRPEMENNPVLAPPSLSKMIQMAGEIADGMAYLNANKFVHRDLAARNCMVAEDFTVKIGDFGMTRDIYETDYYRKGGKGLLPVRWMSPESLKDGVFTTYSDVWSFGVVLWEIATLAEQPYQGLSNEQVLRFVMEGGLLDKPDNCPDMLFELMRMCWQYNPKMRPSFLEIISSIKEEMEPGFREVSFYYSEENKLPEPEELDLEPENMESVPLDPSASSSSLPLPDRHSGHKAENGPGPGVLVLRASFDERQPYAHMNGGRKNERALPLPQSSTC
Chain of Dual serine/threonine and tyrosine protein kinase (Homo sapiens) (Q6XUX3 whole entry): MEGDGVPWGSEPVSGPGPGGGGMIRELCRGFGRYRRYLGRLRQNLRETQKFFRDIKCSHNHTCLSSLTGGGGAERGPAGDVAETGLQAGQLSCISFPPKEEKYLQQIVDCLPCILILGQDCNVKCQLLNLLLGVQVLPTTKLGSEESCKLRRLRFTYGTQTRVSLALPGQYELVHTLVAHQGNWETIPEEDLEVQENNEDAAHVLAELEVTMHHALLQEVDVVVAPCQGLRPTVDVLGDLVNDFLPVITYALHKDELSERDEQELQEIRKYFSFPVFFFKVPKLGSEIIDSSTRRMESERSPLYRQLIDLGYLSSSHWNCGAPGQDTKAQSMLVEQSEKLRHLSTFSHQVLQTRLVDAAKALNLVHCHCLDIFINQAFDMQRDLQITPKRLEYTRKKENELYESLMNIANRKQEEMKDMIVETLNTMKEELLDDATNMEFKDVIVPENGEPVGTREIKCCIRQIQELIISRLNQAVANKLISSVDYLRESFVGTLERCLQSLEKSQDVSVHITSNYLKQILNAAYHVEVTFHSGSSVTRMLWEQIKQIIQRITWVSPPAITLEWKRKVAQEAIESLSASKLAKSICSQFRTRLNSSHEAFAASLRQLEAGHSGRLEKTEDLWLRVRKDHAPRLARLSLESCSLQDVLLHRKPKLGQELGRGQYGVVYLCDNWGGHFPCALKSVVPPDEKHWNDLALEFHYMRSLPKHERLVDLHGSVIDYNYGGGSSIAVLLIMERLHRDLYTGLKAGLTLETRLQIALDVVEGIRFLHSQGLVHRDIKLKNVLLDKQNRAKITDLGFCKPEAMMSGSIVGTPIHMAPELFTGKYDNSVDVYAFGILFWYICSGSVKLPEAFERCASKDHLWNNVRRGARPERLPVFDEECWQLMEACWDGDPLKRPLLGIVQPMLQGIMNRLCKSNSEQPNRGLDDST
Chain of Phosphatidylinositol 4,5-bisphosphate 3-kinase catalytic subunit beta isoform (Homo sapiens) (P42338 whole entry, looked up, canonical isoform): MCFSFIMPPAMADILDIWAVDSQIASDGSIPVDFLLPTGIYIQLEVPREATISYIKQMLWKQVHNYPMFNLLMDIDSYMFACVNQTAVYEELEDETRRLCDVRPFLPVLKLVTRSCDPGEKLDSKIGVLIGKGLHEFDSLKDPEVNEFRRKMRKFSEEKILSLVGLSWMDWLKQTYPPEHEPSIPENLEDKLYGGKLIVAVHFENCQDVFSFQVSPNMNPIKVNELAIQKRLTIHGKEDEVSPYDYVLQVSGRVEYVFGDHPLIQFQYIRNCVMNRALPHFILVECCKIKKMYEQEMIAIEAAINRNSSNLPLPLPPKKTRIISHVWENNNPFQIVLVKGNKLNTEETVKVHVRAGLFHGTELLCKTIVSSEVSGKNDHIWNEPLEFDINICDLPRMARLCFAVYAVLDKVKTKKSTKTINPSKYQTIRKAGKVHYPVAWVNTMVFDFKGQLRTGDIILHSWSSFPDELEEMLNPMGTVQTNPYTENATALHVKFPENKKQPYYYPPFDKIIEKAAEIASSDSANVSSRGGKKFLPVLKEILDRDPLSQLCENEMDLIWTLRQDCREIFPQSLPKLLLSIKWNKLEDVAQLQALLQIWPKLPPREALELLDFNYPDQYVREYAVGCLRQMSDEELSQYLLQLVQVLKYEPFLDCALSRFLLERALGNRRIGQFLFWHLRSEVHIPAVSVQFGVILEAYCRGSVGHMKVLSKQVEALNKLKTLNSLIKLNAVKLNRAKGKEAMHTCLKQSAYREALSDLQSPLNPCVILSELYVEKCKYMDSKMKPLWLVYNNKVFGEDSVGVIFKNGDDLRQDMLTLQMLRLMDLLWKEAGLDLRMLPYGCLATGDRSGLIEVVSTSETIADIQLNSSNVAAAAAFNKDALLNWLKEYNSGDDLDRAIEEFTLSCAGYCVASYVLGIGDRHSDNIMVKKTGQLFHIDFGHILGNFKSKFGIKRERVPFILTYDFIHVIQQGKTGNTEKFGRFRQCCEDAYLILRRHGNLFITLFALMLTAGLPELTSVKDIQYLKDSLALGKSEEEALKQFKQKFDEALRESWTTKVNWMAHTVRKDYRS
Chain of Dual specificity mitogen-activated protein kinase kinase 7 (Homo sapiens) (O14733 whole entry): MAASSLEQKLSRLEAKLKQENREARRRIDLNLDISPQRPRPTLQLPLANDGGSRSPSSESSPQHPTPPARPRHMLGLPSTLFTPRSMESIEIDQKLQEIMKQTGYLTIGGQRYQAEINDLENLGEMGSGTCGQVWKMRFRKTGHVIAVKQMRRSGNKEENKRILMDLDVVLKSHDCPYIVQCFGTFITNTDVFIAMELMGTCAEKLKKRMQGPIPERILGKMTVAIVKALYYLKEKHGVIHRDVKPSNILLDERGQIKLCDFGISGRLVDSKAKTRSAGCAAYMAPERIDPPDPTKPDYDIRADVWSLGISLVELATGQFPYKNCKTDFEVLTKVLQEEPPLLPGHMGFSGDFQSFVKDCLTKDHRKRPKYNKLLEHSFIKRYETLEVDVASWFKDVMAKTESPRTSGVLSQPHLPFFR

CCC(=N\O)/C(C)=C/c1ccc(F)cc1 [A-079]
inactive: residual activity [1] 78% | residual activity [2] 88% | residual activity [3] 71% | residual activity [4] 93% | residual activity [5] 87% | residual activity [6] 97% | residual activity [7] 81% | residual activity [8] 99% | residual activity [9] 69% | residual activity [10] 84% | residual activity [11] 100% | residual activity [12] 76% | residual activity [13] 100% | residual activity [14] 79% | residual activity [15] 100% | residual activity [16] 76% | residual activity [17] 79% | residual activity [18] 79% | residual activity [19] 96% | residual activity [20] 99% | residual activity [21] 86% | residual activity [22] 100% | residual activity [23] 79% | residual activity [24] 100% | residual activity [25] 100% | residual activity [26] 95% | residual activity [27] 100% | residual activity [28] 99% | residual activity [29] 96% | residual activity [30] 100% | residual activity [31] 71% | residual activity [32] 99% | residual activity [33] 100% | residual activity [34] 91% | residual activity [35] 66% | residual activity [36] 87% | residual activity [37] 73% | residual activity [38] 82% | residual activity [39] 65% | inhibition [40] 21.7% | inhibition [41] 14.5% | inhibition [42] -5.9% | inhibition [43] 4.32% | inhibition [44] 15.1%

CCC(=N\O)/C(C)=C/c1ccc(F)c(C)c1 [A-226]
inactive: residual activity [1] 91% | residual activity [2] 84% | residual activity [3] 100% | residual activity [4] 100% | residual activity [5] 80% | residual activity [6] 100% | residual activity [7] 100% | residual activity [8] 100% | residual activity [9] 87% | residual activity [10] 87% | residual activity [11] 89% | residual activity [12] 97% | residual activity [13] 100% | residual activity [14] 88% | residual activity [15] 100% | residual activity [16] 91% | residual activity [17] 100% | residual activity [18] 100% | residual activity [19] 100% | residual activity [20] 72% | residual activity [21] 100% | residual activity [22] 88% | residual activity [23] 100% | residual activity [24] 100% | residual activity [25] 75% | residual activity [26] 81% | residual activity [27] 100% | residual activity [28] 100% | residual activity [29] 80% | residual activity [30] 100% | residual activity [31] 100% | residual activity [32] 100% | residual activity [33] 92% | residual activity [34] 65% | residual activity [35] 95% | residual activity [36] 88% | residual activity [37] 100% | residual activity [38] 73% | residual activity [39] 100% | inhibition [40] 40.8% | inhibition [41] 8.6% | inhibition [42] -1.52% | inhibition [43] -0.3% | inhibition [44] 33.1%
